From patent publication US8445466B2, “Stable aqueous compositions comprising amide-protected bioactive creatine species and uses thereof” (priority 2010, dated 2013)

Experiments:
[1] = Conversion of creatine to creatinine in aqueous solutions; format: physicochemical; details: aqueous solution 0.250 mg/mL
[2] = test system: patients with idiopathic PD; details: 20 g/d for the first 5 days and 5 g/d thereafter, 24 sessions of resistance training; cited from earlier work
[3] = Stability of creatyl-L-glutamine formulations on storage in glass vials, HPLC assay of C-L-G and creatinine; format: physicochemical
Description: Specifically exemplified herein are three different formulations prepared using stable creatyl-L-glutamine (C-L-G) at a concentration of 1.00 mg/ml between pH 3.0 to 7.0. These formulations are described below.
The above described formulations were stored in glass vials at room temperature (25° C., 77° F.), at refrigerator temperature (4° C., 39° F.) and at elevated temperature (40° C., 104° F.) in vials. These samples were assayed by HPLC at periodic intervals for minimum of 60 days for creatyl-L-glutamine (C-L-G) and creatinine (degradation product of creatine) content. The % recovery results are presented below.

[4] = cited from earlier work
[5] = test system: young adult, vegetarian subjects; details: oral, 5 grams daily for six weeks, 45 subjects; cited from earlier work
[6] = test system: person with myasthenia gravis; details: 5 grams daily with resistance training 3× per week for 15 weeks; cited from earlier work
[7] = test system: patients with McArdle disease; details: cited from earlier work
[8] = test system: small cohorts of athletes; details: oral; short term (5 days), medium term (9 weeks) and long term (up to 5 years); cited from earlier work
[9] = test system: Division IA college football players; details: up to 21-months; 15.75 g/day for five days, average 5 g/day thereafter; cited from earlier work
[10] = cited from earlier work; remark: listed apart in the source
[11] = test system: highly trained adolescent (mean age 16) fin swimmers; details: five days of supplementation; cited from earlier work

Compound: CN(CC(=O)O)C(=N)N.O [Creatine Monohydrate, creatine monohydrate]
- COP Assay ([1]; pH 3.0, 25 C.°, 39 Days): 0.072 mg/mL
- Creatinine ([1]; pH 3.0, 25 C.°, 39 Days): 0.154 mg/mL
- COP Assay ([1]; pH 3.0, 25 C.°, 3 day): 0.219 mg/ml mg/mL
- Creatinine ([1]; pH 3.0, 25 C.°, 3 day): 0.026 mg/mL
- COP Assay ([1]; pH 3.0, 25 C.°, 10 days): 0.214 mg/mL
- Creatinine ([1]; pH 3.0, 25 C.°, 10 days): 0.072 mg/ml mg/mL
- COP Assay ([1]; pH 3.0, 25 C.°, 21 days): 0.151 mg/mL
- Creatinine ([1]; pH 3.0, 25 C.°, 21 days): 0.111 mg/mL
- COP Assay ([1]; pH 3.0, 25 C.°, INITIAL): 0.245 mg/mL
- Creatinine ([1]; pH 3.0, 25 C.°, INITIAL): 0.000 mg/mL
- COP Assay ([1]; pH 3.0, 40 C.°, 39 Days): 0.030 mg/mL
- Creatinine ([1]; pH 3.0, 40 C.°, 39 Days): 0.186 mg/mL
- COP Assay ([1]; pH 3.0, 40 C.°, 3 day): 0.091 mg/ml mg/mL
- Creatinine ([1]; pH 3.0, 40 C.°, 3 day): 0.125 mg/mL
- COP Assay ([1]; pH 3.0, 40 C.°, 10 days): 0.036 mg/mL
- Creatinine ([1]; pH 3.0, 40 C.°, 10 days): 0.177 mg/ml mg/mL
- COP Assay ([1]; pH 3.0, 40 C.°, 21 days): 0.029 mg/mL
- Creatinine ([1]; pH 3.0, 40 C.°, 21 days): 0.186 mg/mL
- COP Assay ([1]; pH 3.0, 40 C.°, INITIAL): 0.245 mg/mL
- Creatinine ([1]; pH 3.0, 40 C.°, INITIAL): 0.000 mg/mL
- COP Assay ([1]; pH 7.0, 40 C.°, 31 Days): 0.251 mg/mL
- Creatinine ([1]; pH 7.0, 40 C.°, 31 Days): 0.068 mg/mL
- COP Assay ([1]; pH 7.0, 40 C.°, 3 day): 0.242 mg/ml mg/mL
- Creatinine ([1]; pH 7.0, 40 C.°, 3 day): 0.008 mg/mL
- COP Assay ([1]; pH 7.0, 40 C.°, INITIAL): 0.257 mg/mL
- Creatinine ([1]; pH 7.0, 40 C.°, INITIAL): 0.000 mg/mL
- biceps curl strength [2]: significantly improved
- chest press strength [2]: significantly improved

Compound: CN(CC(=O)N[C@@H](CCC(N)=O)C(=O)O)C(=N)N [creatyl-L-glutamine]
- time composition is stable ([3]; elevated temperature (40° C., 104° F.)): more than 30 days
- time aqueous solutions remain stable ([3]; refrigerator temperature (4° C., 39° F.)): more than 90 days
- time aqueous solutions remain stable ([3]; room temperature (25° C., 77° F.)): more than 90 days

Compound: CN(CC(=O)O)C(=N)N [creatine, 2-(carbamimidoyl-methyl-amino) acetic acid]
- average increase in muscle strength, greater than following placebo ingestion ([4]; 22 published studies, during resistance training): 8%
- average increase in muscle strength following creatine supplementation during resistance training ([4]; 22 published studies, placebo 12%): 20%
- average increase in weightlifting performance, greater than following placebo ingestion ([4]; during resistance training): 14%
- average increase in weightlifting performance (maximal repetitions at a given percent of maximal strength) ([4]; during resistance training, placebo 12%): 26%
- adverse health effect ([4]; short- or long-term creatine supplementations): no adverse health effect
- intelligence (Raven's Advanced Progressive Matrices) [5]: significantly improves
- working memory (backward digit span) [5]: significantly improves
- improved peak strength [6]: up to 37%
- increase in body weight [6]: 7%
- increase in fat free mass [6]: 4%
- skeletal muscle function [7]: improves
- adverse effects on renal function [8]: No adverse effects
- adverse effect in long-term supplementation [9]: No adverse effect
- degradation in the GI tract into creatinine, estimated rate ([10]; GI tract): ~0.1 g of a 5 g dose per hour
- non-enzymatic conversion into creatinine ([10]; typical 70 kg individual): approximately 1.7 % daily
- dynamic strength [11]: enhances
- performance in consecutive maximal swims [11]: improves

Compound: disodium creatine phosphate tetrahydrate
- Creatine Monohydrate ([1]; pH 3.0, 25 C.°, 39 Days): 0.031 mg/mL
- Creatinine ([1]; pH 3.0, 25 C.°, 39 Days): 0.069 mg/mL
- Creatine Monohydrate ([1]; pH 3.0, 25 C.°, 3 day): 0.095 mg/mL
- Creatinine ([1]; pH 3.0, 25 C.°, 3 day): 0.014 mg/mL
- Creatine Monohydrate ([1]; pH 3.0, 25 C.°, 10 days): 0.092 mg/mL
- Creatinine ([1]; pH 3.0, 25 C.°, 10 days): 0.034 mg/mL
- Creatine Monohydrate ([1]; pH 3.0, 25 C.°, 21 days): 0.065 mg/mL
- Creatinine ([1]; pH 3.0, 25 C.°, 21 days): 0.050 mg/ml mg/mL
- Creatine Monohydrate ([1]; pH 3.0, 25 C.°, INITIAL): 0.000 mg/ml mg/mL
- Creatinine ([1]; pH 3.0, 25 C.°, INITIAL): 0.000 mg/mL
- Creatine Monohydrate ([1]; pH 3.0, 40 C.°, 39 Days): 0.012 mg/ml mg/mL
- Creatinine ([1]; pH 3.0, 40 C.°, 39 Days): 0.081 mg/mL
- Creatine Monohydrate ([1]; pH 3.0, 40 C.°, 3 day): 0.042 mg/mL
- Creatinine ([1]; pH 3.0, 40 C.°, 3 day): 0.054 mg/mL
- Creatine Monohydrate ([1]; pH 3.0, 40 C.°, 10 days): 0.017 mg/mL
- Creatinine ([1]; pH 3.0, 40 C.°, 10 days): 0.086 mg/mL
- Creatine Monohydrate ([1]; pH 3.0, 40 C.°, 21 days): 0.011 mg/mL
- Creatinine ([1]; pH 3.0, 40 C.°, 21 days): 0.080 mg/ml mg/mL
- Creatine Monohydrate ([1]; pH 3.0, 40 C.°, INITIAL): 0.004 mg/mL
- Creatinine ([1]; pH 3.0, 40 C.°, INITIAL): 0.000 mg/mL
- Creatine Monohydrate ([1]; pH 7.0, 25 C.°, 39 Days): 0.089 mg/mL
- Creatinine ([1]; pH 7.0, 25 C.°, 39 Days): 0.000 mg/mL
- Creatinine ([1]; pH 7.0, 25 C.°, 3 day): 0.000 mg/mL
- Creatine Monohydrate ([1]; pH 7.0, 25 C.°, 10 days): 0.041 mg/mL
- Creatinine ([1]; pH 7.0, 25 C.°, 10 days): 0.000 mg/mL
- Creatine Monohydrate ([1]; pH 7.0, 25 C.°, 21 days): 0.069 mg/mL
- Creatinine ([1]; pH 7.0, 25 C.°, 21 days): 0.000 mg/ml mg/mL
- Creatine Monohydrate ([1]; pH 7.0, 25 C.°, INITIAL): 0.00 mg/mL
- Creatinine ([1]; pH 7.0, 25 C.°, INITIAL): 0.000 mg/mL
- Creatine Monohydrate ([1]; pH 7.0, 40 C.°, 39 Days): 0.108 mg/mL
- Creatinine ([1]; pH 7.0, 40 C.°, 39 Days): 0.030 mg/mL
- Creatine Monohydrate ([1]; pH 7.0, 40 C.°, 3 day): 0.042 mg/mL
- Creatinine ([1]; pH 7.0, 40 C.°, 3 day): 0.004 mg/mL
- Creatine Monohydrate ([1]; pH 7.0, 40 C.°, 10 days): 0.114 mg/mL
- Creatinine ([1]; pH 7.0, 40 C.°, 10 days): 0.012 mg/mL
- Creatine Monohydrate ([1]; pH 7.0, 40 C.°, 21 days): 0.122 mg/mL
- Creatinine ([1]; pH 7.0, 40 C.°, 21 days): 0.020 mg/ml mg/mL
- Creatine Monohydrate ([1]; pH 7.0, 40 C.°, INITIAL): 0.00 mg/mL
- Creatinine ([1]; pH 7.0, 40 C.°, INITIAL): 0.000 mg/mL
